Assay results reported in PMC6296572 (Journal of Genetic Engineering & Biotechnology, 2017).

System: laccase from Trichoderma harzianum strain HZN10 (free, purified)
Test: ABTS oxidation, absorbance at […] nm
Format: biochemical
Settings: free enzyme; ABTS 0.2-2.4 mM; standard assay 0.1 M sodium phosphate pH 6, 25 °C

SMILES: CCn1c(=NN=c2sc3cc(S(=O)(=O)O)ccc3n2CC)sc2cc(S(=O)(=O)O)ccc21 [ABTS, 2,2′-azino-bis(3-ethylbenzothiazoline-6-sulfonic acid)]
- Km: 500 µM
